# Data from paper PMC10458458, “Characterization of Anticancer Effects of the Analogs of DJ4, a Novel Selective Inhibitor of ROCK and MRCK Kinases” (Pharmaceuticals, 2023).
# Tests used:
# MRCKα = target: T1, MRCKα (Homo sapiens, UniProt Q5VT25); experiment: Cell-free biochemical kinase activity assay (pMYPT1 immunoblot)
# T1 construct: purchased Invitrogen
# Experimental: (§1) Cell-free biochemical kinase inhibitory activity of these compounds was evaluated at 1 µM concentration using the previously described ROCK1 kinase activity assay. Among the 27 analogs, we identified four analogs (DJ110, DJ-Allyl, DJE4, and DJ-Morpholine) with >50% inhibition of MYPT1 phosphorylation (Supplementary Figure S1). These four compounds were selected for further evaluation at 1 µM and 0.1 µM for their in vitro inhibitory activity against ROCK1, ROCK2, MRCKα, and MRCKβ kinases.
# (§2) Cell-free biochemical kinase activity was assayed using published procedures. Briefly, recombinant ROCK1 (9.48 nM) or ROCK2 (8.26 nM; Invitrogen, Waltham, MA, USA) was incubated in the presence of 0.1 and 1 µM concentrations of DJ4 analogs or DMSO in ROCK-assay buffer at room temperature (RT) for 10 min. MRCKα and MRCKβ (2 ng/µL; Invitrogen) assays were performed in the assay buffer recommended by the manufacturer. Recombinant MYPT1 (20 ng/µL; Millipore) and ATP (5 µM) were added to initiate the reaction. The reaction was incubated at 30 °C for 20 min. Western blot analysis of these samples for phosphorylation of MYPT1 was performed as per the method mentioned in our earlier publication. Briefly, an equal amount of sample was loaded on Bis-Tris gel (Novex, Life Technologies, Carlsbad, CA, USA), proteins were electrophoresed and transferred to PVDF membranes. The blots were probed with anti-pMYPT1 (Thr696) or anti-MYPT1 (Millipore) antibodies.
# MRCKβ = target: T2, MRCKβ (Homo sapiens, UniProt Q9Y5S2); experiment: as above; details: 1 µM
# T2 construct: purchased Invitrogen
# Experimental: as §1, §2
# A375M = experiment: MTT cell growth assay, 48 h; assay type: cell-based; details: Homo sapiens, 2000 cells/well, ±SE, read-out: IC50 from MTT assays
# Experimental: (§3) However, as the concentration increased from 2.5 µM onwards, the effect was reversed. Similarly, DJ-Morpholine decreased the cell growth by ~30% at 0.6215 µM, while the effect remained saturated as the concentration increased. This trend was also observed in A549 lung cancer and A375M melanoma cells.
# (§4) Figure 7 DJ4 analogs reduce cell growth in melanoma, breast, and lung cancer cells. MTT assay was performed to evaluate the effect of DJ4 analogs on cell growth after 48 h of treatment. IC50 values were calculated with nonlinear least squares regression curve fit by GraphPad prism. […] The error bars indicate SD from triplicates of the experiment.
# (§5) The cytotoxic effect of DJ4 was studied in H1299, H226, A549, H522, H23, and H460 non-small cell lung cancer cells. The cells were seeded into 96-well plates with confluence ([…]). The cells were further treated with DMSO or DJ4 for 72 h. To study the effects of analogs, A549, A375M, and MDA-MB-231 cells were plated with low density (2000 cells/well) in a 96-well plate and grown overnight at 37 °C (with 5% CO2). Cells were treated with the analogs at the concentration of 0–10 µM for 48 h. At the end of the treatment period, cells were incubated with a tetrazolium dye MTT (3-(4,5-dimethylthiazol-2-yl)-2,5-diphenyltetrazolium bromide) reagent (Sigma) at 37 °C for 3 h to develop formazan crystals. The media was siphoned off and crystals were dissolved in DMSO and mixed gently on rocker for 5 min. Absorbance was read at 570 nm and 630 nm (background) wavelength. IC50 values were calculated from non-linear regression curve fit by using GraphPad Prism 5.0 software.
# A549 = experiment: MTT cell growth assay, 48 h; assay type: cell-based; details: Homo sapiens; A549, 48 h, 2000 cells/well; ±SE; read-out: IC50 from MTT assays
# Experimental: as §3, §4, §5
# [1] = test system: MDA-MB-231 breast cancer cells; experiment: Cell migration (scratch/wound healing) assay; assay type: cell-based, human; details: MDA-MB-231, 2.5 µM for 24 h, then 9 h migration in compound-free medium; vehicle = 100%
# Experimental: Lastly, we examined the effects of these four analogs on migration of MDA-MB-231 breast cancer cells. Scratch assays were performed on cells treated with the various analogs for 24 h and then allowed to migrate into the scratched area for 9 h in compound-free media. […] Due to limited solubility, DJ-Morpholine was not tested for its effect on cell migration.
# Figure 9 DJ4 analogs inhibit migration of MDA-MB-231 breast cancer cells. (A) MDA-MB-231 cells were treated with 2.5 µM concentration of DJ4 analogs for 24 h. At the end of the treatment period, uniform scratches were made across the monolayer of cells. The cells were allowed to migrate in the scratched area for 9 h in a compound-free medium. The cells were stained with calcein (green) and propidium iodide (red) to study live and dead cell populations in the scratched area. (B) The distance migrated by the treated cells was normalized to vehicle control treated cells. Statistical significance was determined by one-way ANOVA followed by Dunnett’s multiple comparison test. The error bars indicate SEM from triplicates of the experiment. *** p < 0.001. TEXT PRINTED IN THE PICTURE: (B) DMSO: % Migration: 100 | (B) DJ4: % Migration: 32 *** | (B) DJ110: % Migration: 28 *** | (B) DJ Allyl: % Migration: 36 *** | (B) DJE4: % Migration: 48 ***
# Migration (scratch/wound healing) assays were performed using published procedures. Briefly, MDA-MB-231 cells were grown to confluence, and cells were treated with DMSO (vehicle control), DJ4, and its active analogs at 2.5 µM concentration for 24 h. At the end of the treatment period, uniform scratches were made in the monolayer of cells. The cells were allowed to migrate for 9 h in a compound-free medium. Light microscopic images were obtained at 0 h and 9 h after creating scratches. The width of the scratches was measured by using AxioVision software (AxioVision Inc., Carl Zeiss, Jena, Germany). The percentage of migration in each treatment at 9 h was calculated in comparison to 0 h readings. Furthermore, the percent migration in treatment groups was normalized to vehicle control (considering 100% migration). The experiment was performed in triplicate. Viability of the cells at the migration area was studied to confirm that the anti-migration effect of the analogs at the tested concentration and duration is independent of cell death. At the end of the migration period, cells were stained with calcein (Invitrogen, Waltham, MA, USA) and propidium iodide (Invitrogen, Waltham, MA, USA) dyes, as per the manufacturer’s protocol, which stain the live and dead cells, respectively.
# ROCK1 = ROCK1 (Homo sapiens, UniProt Q13464); experiment: Cell-free biochemical kinase activity assay (pMYPT1 immunoblot); design: purchased Invitrogen; details: for inhibition at 1 µM: cell-free screen of 27 analogs, read-out: inhibition of MYPT1 phosphorylation
# Experimental: as §1, §2
# Figure S1. Screening of analogs in the in vitro kinase activity assay to identify […]
# Kinase inhibitory activity of the 27 compounds was evaluated by in vitro cell-free biochemical kinase activity assay. The compounds (1 µM) were incubated with recombinant ROCK1 (9.48nM), recombinant MYPT1 (a kinase substrate, 84 nM) and ATP (25 µM). Phosphorylation status of the substrate (pMYPT1) was analyzed to study the […]
# T2 sequence (Q9Y5S2 whole entry): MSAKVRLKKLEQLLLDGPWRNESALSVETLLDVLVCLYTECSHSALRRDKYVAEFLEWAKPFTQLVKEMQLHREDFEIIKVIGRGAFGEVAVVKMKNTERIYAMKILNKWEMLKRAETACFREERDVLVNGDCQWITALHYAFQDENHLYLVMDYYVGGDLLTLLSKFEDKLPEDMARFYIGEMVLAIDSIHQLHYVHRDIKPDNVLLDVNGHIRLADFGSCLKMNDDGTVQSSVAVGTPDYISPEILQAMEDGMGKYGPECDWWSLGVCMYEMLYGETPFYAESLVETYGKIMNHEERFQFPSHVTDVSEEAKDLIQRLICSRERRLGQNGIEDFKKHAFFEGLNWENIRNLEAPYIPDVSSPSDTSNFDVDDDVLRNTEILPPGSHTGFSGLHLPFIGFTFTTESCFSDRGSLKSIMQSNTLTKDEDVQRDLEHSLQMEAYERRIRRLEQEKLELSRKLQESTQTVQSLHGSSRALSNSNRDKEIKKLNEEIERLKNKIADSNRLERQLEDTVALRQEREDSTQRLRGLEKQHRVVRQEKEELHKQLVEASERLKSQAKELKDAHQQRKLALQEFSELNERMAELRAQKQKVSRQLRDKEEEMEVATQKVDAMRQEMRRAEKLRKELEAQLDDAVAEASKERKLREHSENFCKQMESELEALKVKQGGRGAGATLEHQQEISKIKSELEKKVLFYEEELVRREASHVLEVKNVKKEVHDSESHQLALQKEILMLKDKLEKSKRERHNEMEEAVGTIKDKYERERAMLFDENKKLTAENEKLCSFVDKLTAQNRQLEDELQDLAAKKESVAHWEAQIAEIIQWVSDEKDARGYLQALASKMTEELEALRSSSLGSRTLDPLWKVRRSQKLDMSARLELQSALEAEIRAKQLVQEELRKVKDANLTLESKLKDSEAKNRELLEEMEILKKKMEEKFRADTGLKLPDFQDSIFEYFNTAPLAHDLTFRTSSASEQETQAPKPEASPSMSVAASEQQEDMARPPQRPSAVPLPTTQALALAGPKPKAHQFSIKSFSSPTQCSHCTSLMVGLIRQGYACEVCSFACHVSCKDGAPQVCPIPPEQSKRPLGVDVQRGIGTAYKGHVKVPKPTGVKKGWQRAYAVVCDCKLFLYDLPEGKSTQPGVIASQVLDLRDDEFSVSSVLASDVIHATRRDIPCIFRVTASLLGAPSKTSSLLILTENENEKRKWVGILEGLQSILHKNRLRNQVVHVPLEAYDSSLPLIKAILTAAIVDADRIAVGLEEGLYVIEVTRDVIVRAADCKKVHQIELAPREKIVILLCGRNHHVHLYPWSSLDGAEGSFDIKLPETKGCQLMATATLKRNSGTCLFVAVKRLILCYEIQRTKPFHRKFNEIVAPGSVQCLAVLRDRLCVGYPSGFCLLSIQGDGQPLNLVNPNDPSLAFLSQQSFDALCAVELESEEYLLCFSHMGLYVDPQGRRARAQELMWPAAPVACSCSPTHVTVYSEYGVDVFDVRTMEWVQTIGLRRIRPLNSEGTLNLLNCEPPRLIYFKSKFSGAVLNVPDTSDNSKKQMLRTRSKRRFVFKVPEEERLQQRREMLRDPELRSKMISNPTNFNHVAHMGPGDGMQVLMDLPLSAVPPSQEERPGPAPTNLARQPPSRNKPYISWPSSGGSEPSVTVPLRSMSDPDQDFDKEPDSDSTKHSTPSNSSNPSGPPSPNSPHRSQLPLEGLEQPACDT
# T1 sequence (Q5VT25 whole entry): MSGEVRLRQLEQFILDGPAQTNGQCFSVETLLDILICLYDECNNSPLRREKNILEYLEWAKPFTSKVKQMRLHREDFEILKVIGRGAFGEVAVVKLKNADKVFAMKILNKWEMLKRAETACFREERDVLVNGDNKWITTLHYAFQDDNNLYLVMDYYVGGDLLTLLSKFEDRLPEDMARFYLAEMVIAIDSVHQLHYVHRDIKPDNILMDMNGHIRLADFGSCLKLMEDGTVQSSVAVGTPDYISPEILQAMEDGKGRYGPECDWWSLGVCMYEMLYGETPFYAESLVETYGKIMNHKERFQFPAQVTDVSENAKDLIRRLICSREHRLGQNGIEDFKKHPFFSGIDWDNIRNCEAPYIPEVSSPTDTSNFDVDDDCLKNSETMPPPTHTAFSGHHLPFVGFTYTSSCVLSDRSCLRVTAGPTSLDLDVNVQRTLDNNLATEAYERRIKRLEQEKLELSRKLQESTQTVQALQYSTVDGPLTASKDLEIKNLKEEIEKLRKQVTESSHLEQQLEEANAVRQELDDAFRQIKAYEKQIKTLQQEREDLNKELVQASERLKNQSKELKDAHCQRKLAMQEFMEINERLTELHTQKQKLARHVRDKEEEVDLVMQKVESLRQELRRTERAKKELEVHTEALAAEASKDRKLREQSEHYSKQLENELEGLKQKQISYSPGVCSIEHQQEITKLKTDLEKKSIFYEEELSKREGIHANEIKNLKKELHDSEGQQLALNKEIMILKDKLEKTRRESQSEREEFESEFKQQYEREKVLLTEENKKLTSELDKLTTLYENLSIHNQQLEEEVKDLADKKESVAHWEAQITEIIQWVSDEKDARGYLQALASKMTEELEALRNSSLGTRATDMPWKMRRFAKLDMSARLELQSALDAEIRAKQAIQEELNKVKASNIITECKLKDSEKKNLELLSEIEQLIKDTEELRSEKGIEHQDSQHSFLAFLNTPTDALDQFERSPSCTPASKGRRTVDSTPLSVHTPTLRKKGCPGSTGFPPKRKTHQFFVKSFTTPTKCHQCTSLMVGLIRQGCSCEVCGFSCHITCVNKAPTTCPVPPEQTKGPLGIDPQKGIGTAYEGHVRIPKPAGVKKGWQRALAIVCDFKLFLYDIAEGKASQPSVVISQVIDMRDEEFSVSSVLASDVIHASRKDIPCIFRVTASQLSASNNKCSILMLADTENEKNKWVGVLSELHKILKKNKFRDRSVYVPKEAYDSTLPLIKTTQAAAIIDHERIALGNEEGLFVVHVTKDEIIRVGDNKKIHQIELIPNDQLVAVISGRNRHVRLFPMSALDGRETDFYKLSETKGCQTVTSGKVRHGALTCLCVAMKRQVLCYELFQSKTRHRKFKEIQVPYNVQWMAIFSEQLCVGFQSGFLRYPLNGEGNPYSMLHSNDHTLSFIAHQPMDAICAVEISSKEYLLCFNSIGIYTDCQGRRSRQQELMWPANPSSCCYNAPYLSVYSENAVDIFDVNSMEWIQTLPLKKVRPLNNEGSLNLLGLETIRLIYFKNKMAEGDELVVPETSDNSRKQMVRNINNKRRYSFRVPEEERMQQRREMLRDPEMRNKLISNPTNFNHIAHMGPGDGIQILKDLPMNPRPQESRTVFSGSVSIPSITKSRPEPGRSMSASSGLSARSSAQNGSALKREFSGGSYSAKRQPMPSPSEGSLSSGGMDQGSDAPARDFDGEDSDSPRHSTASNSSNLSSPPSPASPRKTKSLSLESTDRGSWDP
# Sequence of ROCK1 (Q13464 whole entry): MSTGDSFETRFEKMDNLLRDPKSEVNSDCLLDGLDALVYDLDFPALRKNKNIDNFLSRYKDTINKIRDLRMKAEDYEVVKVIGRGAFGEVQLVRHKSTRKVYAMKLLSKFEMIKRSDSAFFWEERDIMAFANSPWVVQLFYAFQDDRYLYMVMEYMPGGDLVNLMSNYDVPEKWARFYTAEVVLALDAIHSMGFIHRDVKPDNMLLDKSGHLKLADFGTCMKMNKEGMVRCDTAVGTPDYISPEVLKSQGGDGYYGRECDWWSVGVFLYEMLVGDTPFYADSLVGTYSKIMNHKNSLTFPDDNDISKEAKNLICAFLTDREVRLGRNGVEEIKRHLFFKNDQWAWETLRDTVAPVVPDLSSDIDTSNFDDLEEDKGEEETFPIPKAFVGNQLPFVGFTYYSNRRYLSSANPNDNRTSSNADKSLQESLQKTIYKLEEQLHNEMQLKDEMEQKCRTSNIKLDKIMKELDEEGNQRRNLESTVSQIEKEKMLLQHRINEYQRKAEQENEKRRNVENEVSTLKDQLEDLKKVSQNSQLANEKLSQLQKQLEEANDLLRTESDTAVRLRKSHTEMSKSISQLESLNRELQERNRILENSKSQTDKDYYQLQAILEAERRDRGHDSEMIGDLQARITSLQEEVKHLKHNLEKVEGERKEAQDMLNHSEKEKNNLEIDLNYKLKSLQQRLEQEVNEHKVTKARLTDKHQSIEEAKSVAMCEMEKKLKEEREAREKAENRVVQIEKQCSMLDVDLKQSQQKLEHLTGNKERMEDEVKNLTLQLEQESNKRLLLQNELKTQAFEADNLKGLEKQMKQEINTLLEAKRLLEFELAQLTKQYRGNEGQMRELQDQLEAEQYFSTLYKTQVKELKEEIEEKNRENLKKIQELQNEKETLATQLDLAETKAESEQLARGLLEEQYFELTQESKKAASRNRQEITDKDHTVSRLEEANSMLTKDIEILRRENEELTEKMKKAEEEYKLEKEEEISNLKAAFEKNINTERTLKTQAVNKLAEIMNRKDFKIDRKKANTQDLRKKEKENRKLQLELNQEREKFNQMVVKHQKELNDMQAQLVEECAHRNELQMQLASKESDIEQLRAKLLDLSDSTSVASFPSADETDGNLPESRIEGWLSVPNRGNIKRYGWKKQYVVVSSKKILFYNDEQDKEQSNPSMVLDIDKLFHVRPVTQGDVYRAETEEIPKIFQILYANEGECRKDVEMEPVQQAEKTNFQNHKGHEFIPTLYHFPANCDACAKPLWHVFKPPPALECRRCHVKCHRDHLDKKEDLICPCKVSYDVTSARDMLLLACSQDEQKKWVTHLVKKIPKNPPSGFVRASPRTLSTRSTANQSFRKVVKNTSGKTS
Compound,inhibition of kinase activity (qualitative immunoblot) (MRCKα; 1 µM),inhibition of kinase activity (qualitative immunoblot) (MRCKβ),IC50 (A375M) [µM],IC50 (A549) [µM],% Migration compared to control [1] [%],"inhibition of kinase activity (qualitative immunoblot) (ROCK1; ROCK1, 1 µM)","inhibition at 1 µM (ROCK1; ROCK1, 1 µM) [%]",inhibition of kinase activity (qualitative immunoblot) (MRCKα; 0.1 µM),"inhibition of kinase activity (qualitative immunoblot) (ROCK1; ROCK1, 0.1 µM)"
C=CC/N=C1\NC(=O)/C(=C\c2c[nH]c3ncccc23)S1 [DJ-Allyl],minimal inhibition,minimal inhibition,4.7 ± 0.52,5 ± 2.2,36,almost completely inhibited,> 50,,
O=C1N/C(=N\CCc2ccccc2)S/C1=C/c1c[nH]c2ncccc12 [DJ4],significantly inhibit,significantly inhibit,1.1 ± 0.15,5.4 ± 1.19,32,significantly inhibit,,ineffective,ineffective
O=C1N/C(=N\Cc2ccccc2)S/C1=C/c1c[nH]c2ncccc12 [DJ110],significantly inhibit,significantly inhibit,0.49 ± 0.03,0.88 ± 0.16,28,significantly inhibit,> 50,significantly inhibited,significantly inhibited
O=C1N/C(=N\CCN2CCOCC2)S/C1=C/c1c[nH]c2ncccc12 [DJ-Morpholine],minimal inhibition,minimal inhibition,> 10,> 10,,almost completely inhibited,> 50,,
CC/N=C1\NC(=O)/C(=C\c2c[nH]c3ncccc23)S1 [DJE4],minimal inhibition,minimal inhibition,5.1 ± 0.32,6.1 ± 1.69,48,almost completely inhibited,> 50,,
